Laboratory results taken from patent US20090105149A1, “Compounds comprising lpa” (ENKAM PHARMACEUTICALS A/S, priority 2003, published 2009).

How the values were obtained:
[1] = system: dissociated hippocampal neurons; experiment: OGD, metabolic activity (MTS) in dissociated hippocampal cell cultures; format: cell-based, rat
Text: In the present study it was investigated the effect of the FGL peptide on synaptic plasticity, neuronal function and vulnerability following oxygen and glucose deprivation (OGD) in organotypic hippocampal neuronal slice cultures (OHSC) from 7-day-old Wistar rats according to method of Stoppini et al. (1991) Neurosci Methods. 37:173-82 and primary cultures of dissociated hippocampal neurons from 1-day-old rats according to method of Maar et al. (1997) J Neurosci Res. 47:163-72. Primary cell cultures were maintained for 11-12 days and OHSC for 12-14 days prior to adding FGLd.
The primary cell cultures and OHSC were exposed to OGD for 10 and 20 minutes. Following OGD, the cultures were again supplied with oxygen and glucose and analysed at 1, 4 or 24 hour time point after introduction of OGD exposure. FGLd (or the control peptide FGLc) was added 24 hr before, immediately, or 1 hr or 24 hr after OGD. When administered prior to OGD, FGLd was removed from the medium when introducing OGD. In some cases, the slice cultures were treated with FGLd only at 4 hr after OGD. In addition, the FGFR inhibitor, SU5402 (25 μM), was added together with FGLd in some of the set-ups.
In hippocampal neuronal cultures, FM 1-43 staining was used to evaluate pre-synaptic function (described above). Cell viability in both primary cell cultures and OHSC was measured using the […] [3-(4,5-dimethylthiazol-2-yl)-2,5-diphenyltetrazolium bromide] assay according to Malich et al, (1997) Toxicology. 124:179-92. In, addition, cell viability in OHSC was measured using propidium iodide (PI) staining according to Laake et al. (1999) Brain Res Brain Res Protoc. 4:173-84.

[2] = system: cerebellar granule neurons (CGN); experiment: TUNEL assay, DNA-fragmentation in KCl-deprived CGN; format: cell-based, rat; details: at 10-15 μg/ml; relative to apoptotic neurons without treatment
Experimental: The number of neurons with fragmented DNA was measured using the Apo-Alert apoptosis detection kit and the fraction of TUNEL-positive neurons was estimated by counting. Results from at least four independent experiments are shown as percentage of cells showing DNA-fragmentation relative to the total number of cells ±SEM with control cultures in low KCl set at 100%. • (a) Effect of depriving CGN cultures of high KCl on number of cells undergoing apoptosis. • (b) Effect of FGLd in apoptosis-induced CGN cultures.
24 hours after induction of apoptotic cell death, the cultures were fixed and the extent of DNA-fragmentation was measured using the ApoAlert apoptosis detection kit, essentially as described by the manufacturer. Briefly, blunt ends of double-stranded DNA molecules were enzymatically labelled with fluorescein-dUTP, and all the neurons were stained with propidium iodide at a concentration of 750 ng/ml. Images of at least 200 neurons from each group in each experiment were obtained using a BioRad Radiance laser scanning system 2000 coupled to a Nikon Eclipse TE 200 confocal microscope equipped with an oil immersion 60×1.4 NA objective (Nikon, Tokyo, Japan). The fraction of TUNEL-positive neurons was determined by counting.

[3] = system: rats; experiment: Morris Water Maze test; format: in vivo, rat
Experimental: In the Morris Water Maze test, rats are evaluated in the spatial training task to find a hidden platform in order to escape swimming in the water.
In the Morris Water Maze study, rats were pre-trained to locate a hidden platform by daily training for 120 seconds for five days (days−4 to 0) before the experiment. On days 1 and 2, rats were given 3 consecutive trials in which the platform location remained constant. The time during which the rats were able to locate the platform was recorded within a maximum test-period of 120 seconds. The rats received a 5 μl injection of the FGLd peptide (5 μg), the control peptide (5 μg), or the vehicle solution immediately after each training trial on days 1 and 2.
The animals were tested 24 hours (day 3) and 7 days (day 10) after training. Fourteen days after training (day 17), the location of the platform was changed. Rats were trained to find a new location of the platform in three consecutive trials (“reversal learning”). In total, 48 animals were evaluated. Animals were divided into three groups consisting of 12-18 rats per treatment group.

[4] = system: rats treated with (25-35) β-amyloid fragment; experiment: Neuronal density / cell death in brain sections, (25-35) β-amyloid fragment rat model; format: in vivo; details: days 7, 10, 13
Experimental: The effect of 5.0 μg FGL per administration per rat, administered sub-occipitally on days 7, 10 and 13 after (25-35) β-amyloid (A-β) fragment-induced toxicity, on neuronal cell death in the CA3 zone of the rat hippocampus. The number of animals in the groups varied from 4 to 8.
(§1) The number of animals in the groups varied from 4 to 8.
as §1
(§2) Behaviour of animals was evaluated using the Social Recognition test, the Open Field test or the Light-dark Discriminating γ-maze. On day 28-30 or day 51 after i.c.v. administration of the (25-35) β-amyloid fragment, the animals were sacrificed, and in selected studies, the brain tissue was collected, histological sections were immunostained with A-β specific antibodies and the amyloid-burden was calculated as a percentage of the A-βpositive area. In addition, the number of neurons in selected areas of brain-sections was calculated using a stereological approach.

[5] = system: rats treated with (25-35) β-amyloid fragment; experiment: Open Field test, (25-35) β-amyloid fragment rat model; format: in vivo; details: day 14; for time spent exploring holes / time spent rearing: sub-occipital, days 7, 10, 13
Experimental: The peptide was applied sub-occipitally at days 7, 10, and 13 after the (25-35) β-amyloid fragment induced neurotoxicity. […] The number of animals per group varied from 9 to 11. ‘A-β’ and ‘V’ are the abbreviations of the (25-35) β-amyloid fragment and vehicle, respectively. The results were analysed using unpaired t-test and significance of results was contingent on achieving a p-value of less than 0.05 (*p<0.05, **p<0.01), when compared with the first measurement period (1-3 min.).
The present study employed a rat model, in which neurotoxicity and cognitive impairment were induced by the (25-35) β-amyloid peptide fragment (see Maurice T., et al. (1996) (Brain Res. 706:181-93) and Delobette S., et al. (1997) Eur J Pharmacol. 319:1-4). Short-term memory deficit induced by the (25-35) β-amyloid peptide fragment in rat is of special importance to study, as it resembles one of the clinical manifestations of Alzheimer's disease. Short-term memory deficit in rats was evaluated using three different behavioural tests: the Social Recognition (Kogan et al, (2000) Hippocampus 10:47-56), Open Field (Cerbone and Sadile, (1994) Neurosci Biobehav Rev. 18:497-518; Vianna et al, (2000) Learn Mem. 7:333-40) and Y-maze (Clayton & Williams, (2000) Neurobiol Learn Mem. 74:135-45) tests. In addition, neuropathological investigations were performed on brain tissue collected at the time of sacrifice. The FGL peptide was administered either sub-occipitally or intranasally.
as §2

## FGLd: MAP-type dendrimer of FGL; dendrimeric tetramer of the FGL peptide (EVYVVAENQQGKSKA)
[1]; no OGD
  metabolic activity (MTS), treatment alone: led to an increase in metabolic activity
[1]; treated 24 hours before or immediately after OGD
  metabolic activity (MTS) after 20 min OGD: the effect of OGD on metabolic activity was diminished
[2]
  reduction of number of apoptotic CGN (DNA-fragmentation), maximal rescue: 40%
[3]; day 2, 5 μg after training, untreated rats 93.0 s
  time to locate the platform: 65.8 s
[3]; day 17
  time to locate the platform (reversal learning): statistically significant
[4]; Study 1, sub-occipital
  neuro-histopathology evaluation of the CA3 area of hippocampus: no significant effect
[4]; Study 2, sub-occipital 5 μg, β-amyloid only 15
  density of neurons in the CA3 zone of the hippocampus: 22 neurons/mcm^2×10^−4
[5]
  locomotion activity: unaffected
[5]; first measurement period
  time spent exploring holes: 3.3 s
  time spent rearing: 7.0 s
[5]; last measurement period
  time spent exploring holes: 0.1 s
  time spent rearing: 0.7 s
